# Patent US8003649B2 (AstraZeneca AB, priority 2007, dated 2011)
# Biological target: T1, Androgen Receptor (AR) (Homo sapiens, UniProt P10275, T878A)
# T1 construct: cell based immuno-fluorescence assay using the LNCaP prostate epithelial cell line; endogenous in cells; host or cells: LNCaP clone FGC (ATCC CRL-1740)
# T1 sequence (P10275 1-920 T878A): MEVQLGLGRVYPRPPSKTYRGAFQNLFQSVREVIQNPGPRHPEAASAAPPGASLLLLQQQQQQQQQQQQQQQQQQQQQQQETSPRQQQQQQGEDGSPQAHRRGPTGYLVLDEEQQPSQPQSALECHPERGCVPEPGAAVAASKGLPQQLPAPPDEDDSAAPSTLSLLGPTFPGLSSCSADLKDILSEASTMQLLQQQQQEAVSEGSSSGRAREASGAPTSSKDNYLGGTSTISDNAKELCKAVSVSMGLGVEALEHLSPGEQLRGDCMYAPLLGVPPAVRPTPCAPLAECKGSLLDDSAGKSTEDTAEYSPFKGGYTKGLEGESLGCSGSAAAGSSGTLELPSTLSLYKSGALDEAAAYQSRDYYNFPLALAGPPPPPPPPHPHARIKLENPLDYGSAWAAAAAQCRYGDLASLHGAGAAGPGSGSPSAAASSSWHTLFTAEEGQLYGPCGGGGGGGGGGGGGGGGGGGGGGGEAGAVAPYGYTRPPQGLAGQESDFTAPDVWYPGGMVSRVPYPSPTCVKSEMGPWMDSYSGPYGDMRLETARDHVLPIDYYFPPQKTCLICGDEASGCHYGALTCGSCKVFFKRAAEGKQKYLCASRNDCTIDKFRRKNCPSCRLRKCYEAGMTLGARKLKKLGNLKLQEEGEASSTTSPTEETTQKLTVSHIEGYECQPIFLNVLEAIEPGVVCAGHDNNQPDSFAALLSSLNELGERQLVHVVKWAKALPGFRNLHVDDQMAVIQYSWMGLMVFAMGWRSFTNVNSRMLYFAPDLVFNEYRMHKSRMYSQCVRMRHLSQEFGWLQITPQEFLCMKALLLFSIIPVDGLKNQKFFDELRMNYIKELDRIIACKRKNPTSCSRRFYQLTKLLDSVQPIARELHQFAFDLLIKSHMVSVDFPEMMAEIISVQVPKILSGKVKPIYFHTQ
# Test: LNCaP Androgen Receptor Down-regulation Cell Assay (immunofluorescence end point)
# Assay type: cell-based
# Conditions: LNCaP prostate carcinoma cells, compound incubation 20-22 hours, 50% reduction of the AR signal; read-out: Androgen Receptor Down-regulation Assay (a) IC50/μM
# Protocol: The ability of compounds to reduce Androgen Receptor (AR) numbers was assessed in a cell based immuno-fluorescence assay using the LNCaP prostate epithelial cell line.
# a) LNCaP Androgen Receptor Down-regulation Cell Assay
# A 5 ml volume of Growth Medium was added to each flask (as above except that 5% (v/v) charcoal stripped FBS (HyClone Code no. SH30068.03) was included instead of 10% (v/v) FBS). Cells were syringed at least twice using a sterile 18G×1.5″ (1.2×40 mm) broad gauge needle and cell density was measured using a haemocytometer.
# Test data reported herein was generated using two different compounds preparation and dosing methods. In method (1) a 10 mM compound stock solution in 100% (v/v) DMSO was serially diluted in 4-fold steps in 100% (v/v) DMSO using a Thermo Scientific Matrix SerialMate. The diluted compounds were then further diluted 1 in 30 in assay media using a Thermo Scientific Matrix PlateMate and a 10 μl aliquot of this dilution was dosed to cells manually using a multi-channel pipette. In method (2) starting with a 10 mM compound stock solution, the Labcyte Echo 550 was used to generate a compound concentration response set diluted in 30 μl of assay media. The Echo 550 is a liquid handler that uses acoustic technology to perform direct microplate-to-microplate transfers of DMSO compound solutions. The system can be programmed to transfer volumes as low as […] in multiple increments between microplates and in so doing generates a serial dilution of compound which is then back-filled to normalise the DMSO concentration across the dilution range. A 10 μl volume of diluted compound is then dosed to cells using a Thermo Scientific Matrix PlateMate.
# Plates were incubated overnight at 37° C., 5% CO2. Wells were then dosed with compound prepared by one of the 2 methods above and further incubated for 20-22 hours at 37° C., 5% CO2. […] This fixative solution was removed and cells were washed with 250 μl of PBS/0.05% (v/v) Tween 20 (PBST) using an automated plate washer. This process was then repeated twice more.
# Immunostaining was performed at room temperature. Cells were permeabilised by the addition of 35 μl of PBS containing 0.5% Tween 20 and incubated for 1 hour at room temperature. Permeabilisation solution was removed and cells were washed with 250 μl of PBST using an automated plate washer. This process was then repeated twice more. 35 μl of Blocking Solution (PBST containing 3% (w/v) Marvel dried skimmed milk (Nestle)) was added to each well and plates were incubated at room temperature for a minimum of 1 hour. […] Then this primary antibody solution was removed from the wells followed by 3×100 μl PBST washes using a plate washer. […] Henceforth, wherever possible, plates were protected from light exposure. The plates were incubated for 1 hour and then the secondary antibody solution was removed from the wells followed by 3×100 ul PBST washes using a plate washer. Then 50 μl of PBST was added to each well and plates were covered with a black plate seal and stored at 4° C. before being read. Plates were read within six hours of completing the immunostaining.
# The Green Fluorescent AR-associated signal in each well was measured using an Acumen Explorer HTS Reader (TTP Labtech Ltd., Cambridge). […] The instrument is a laser-scanning fluorescence microplate cytometer which samples the well at regular intervals and uses threshold algorithms to identify all fluorescent intensities above the solution background without the need to generate and analyse an image. These fluorescent objects can be quantified and provide a measure of the AR levels in cells. Fluorescence dose response data obtained with each compound was exported into a suitable software package (such as Origin) to perform curve fitting analysis. Down-regulation of AR levels was expressed as an IC50 value.
row,DC50 [µM],SMILES
1,7.4,"FC(F)(F)c1nnc2ccc(N3CCN(Cc4cscn4)CC3)nn12 [Example 61, 6-[4-(1,3-thiazol-4-ylmethyl)piperazin-1-yl]-3-(trifluoromethyl)-[1,2,4]triazolo[4,3-b]pyridazine]"
2,0.72,"FC(F)(F)c1nnc2ccc(N3CCN(Cc4ccccc4Cl)CC3)nn12 [Example 62, 6-[4-[(2-chlorophenyl)methyl]piperazin-1-yl]-3-(trifluoromethyl)-[1,2,4]triazolo[4,3-b]pyridazine]"
3,1.5,"FC(F)(F)c1nnc2ccc(N3CCN(Cc4cccc5cc[nH]c45)CC3)nn12 [Example 63, 6-[4-(1H-indol-7-ylmethyl)piperazin-1-yl]-3-(trifluoromethyl)-[1,2,4]triazolo[4,3-b]pyridazine]"
4,2.5,"FC(F)(F)c1nnc2ccc(N3CCN(Cc4cnc5ccccc5c4)CC3)nn12 [Example 64, 3-[[4-[3-(trifluoromethyl)[1,2,4]triazolo[4,3-b]pyridazin-6-yl]piperazin-1-yl]methyl]quinoline]"
5,0.76,"FC(F)(F)c1nnc2ccc(N3CCN(Cc4cccc5cnccc45)CC3)nn12 [Example 65, 5-[[4-[3-(trifluoromethyl)-[1,2,4]triazolo[4,3-b]pyridazin-6-yl]piperazin-1-yl]methyl]isoquinoline]"
6,0.33,"FC(F)(F)c1nnc2ccc(N3CCN(Cc4cccc5ccccc45)CC3)nn12 [Example 66, 6-[4-(naphthalen-1-ylmethyl)piperazin-1-yl]-3-(trifluoromethyl)-[1,2,4]triazolo[4,3-b]pyridazine]"
7,1,"FC(F)(F)c1ccccc1CN1CCN(c2ccc3nnc(C(F)(F)F)n3n2)CC1 [Example 67, 3-(trifluoromethyl)-6-[4-[[2-(trifluoromethyl)phenyl]methyl]piperazin-1-yl]-[1,2,4]triazolo[4,3-b]pyridazine]"
8,1.4,"Cn1c(CN2CCN(c3ccc4nnc(C(F)(F)F)n4n3)CC2)cc2ccccc21 [Example 69, 6-[4-[(1-methylindol-2-yl)methyl]piperazin-1-yl]-3-(trifluoromethyl)-[1,2,4]triazolo[4,3-b]pyridazine]"
9,0.64,"FC(F)(F)c1nnc2ccc(N3CCN(Cc4cccs4)CC3)nn12 [Example 70, 6-[4-(thiophen-2-ylmethyl)piperazin-1-yl]-3-(trifluoromethyl)-[1,2,4]triazolo[4,3-b]pyridazine]"
10,1.4,"Cn1cc(CN2CCN(c3ccc4nnc(C(F)(F)F)n4n3)CC2)c2ccccc21 [Example 71, 6-[4-[(1-methylindol-3-yl)methyl]piperazin-1-yl]-3-(trifluoromethyl)-[1,2,4]triazolo[4,3-b]pyridazine]"
11,1,"Fc1ccccc1CN1CCN(c2ccc3nnc(C(F)(F)F)n3n2)CC1 [Example 72, 6-[4-[(2-fluorophenyl)methyl]piperazin-1-yl]-3-(trifluoromethyl)-[1,2,4]triazolo[4,3-b]pyridazine]"
12,5.6,"CS(=O)(=O)c1cccc(CN2CCN(c3ccc4nnc(C(F)(F)F)n4n3)CC2)c1 [Example 74, 6-[4-[(3-methylsulfonylphenyl)methyl]piperazin-1-yl]-3-(trifluoromethyl)-[1,2,4]triazolo[4,3-b]pyridazine]"
13,2.3,"COc1ccccc1CN1CCN(c2ccc3nnc(C(F)(F)F)n3n2)CC1 [Example 75, 6-[4-[(2-methoxyphenyl)methyl]piperazin-1-yl]-3-(trifluoromethyl)-[1,2,4]triazolo[4,3-b]pyridazine]"
14,2.3,"FC(F)(F)c1nnc2ccc(N3CCN(Cc4cccc5c4OCCO5)CC3)nn12 [Example 76, 6-[4-(2,3-dihydro-1,4-benzodioxin-5-ylmethyl)piperazin-1-yl]-3-(trifluoromethyl)-[1,2,4]triazolo[4,3-b]pyridazine]"
15,1.4,"FC(F)(F)c1nnc2ccc(N3CCN(Cc4ccc5[nH]ccc5c4)CC3)nn12 [Example 77, 6-[4-(1H-indol-5-ylmethyl)piperazin-1-yl]-3-(trifluoromethyl)-[1,2,4]triazolo[4,3-b]pyridazine]"
16,2.4,"FC(F)(F)c1nnc2ccc(N3CCN(Cc4ccco4)CC3)nn12 [Example 79, 6-[4-(furan-2-ylmethyl)piperazin-1-yl]-3-(trifluoromethyl)-[1,2,4]triazolo[4,3-b]pyridazine]"
17,7.2,"FC(F)(F)c1nnc2ccc(N3CCN(Cc4cccnc4)CC3)nn12 [Example 81, 6-[4-(pyridin-3-ylmethyl)piperazin-1-yl]-3-(trifluoromethyl)-[1,2,4]triazolo[4,3-b]pyridazine]"
18,1.6,"COc1cccc(CN2CCN(c3ccc4nnc(C(F)(F)F)n4n3)CC2)c1 [Example 82, 6-[4-[(3-methoxyphenyl)methyl]piperazin-1-yl]-3-(trifluoromethyl)-[1,2,4]triazolo[4,3-b]pyridazine]"
19,2.5,"FC(F)(F)c1nnc2ccc(N3CCN(Cc4ccc[nH]4)CC3)nn12 [Example 83, 6-[4-(1H-pyrrol-2-ylmethyl)piperazin-1-yl]-3-(trifluoromethyl)-[1,2,4]triazolo[4,3-b]pyridazine]"
20,1.8,"FC(F)(F)c1nnc2ccc(N3CCN(Cc4ccc5c(c4)CCO5)CC3)nn12 [Example 84, 6-[4-(2,3-dihydro-1-benzofuran-5-ylmethyl)piperazin-1-yl]-3-(trifluoromethyl)-[1,2,4]triazolo[4,3-b]pyridazine]"
21,1.6,"FC(F)(F)c1nnc2ccc(N3CCN(Cc4ccc5c(c4)OCO5)CC3)nn12 [Example 85, 6-[4-(1,3-benzodioxol-5-ylmethyl)piperazin-1-yl]-3-(trifluoromethyl)-[1,2,4]triazolo[4,3-b]pyridazine]"
22,5.2,"Cn1cccc1CN1CCN(c2ccc3nnc(C(F)(F)F)n3n2)CC1 [Example 87, 6-[4-[(1-methylpyrrol-2-yl)methyl]piperazin-1-yl]-3-(trifluoromethyl)-[1,2,4]triazolo[4,3-b]pyridazine]"
23,1.5,"FC(F)(F)c1nnc2ccc(N3CCN(Cc4ccc5c(c4)OCCO5)CC3)nn12 [Example 88, 6-[4-(2,3-dihydro-1,4-benzodioxin-6-ylmethyl)piperazin-1-yl]-3-(trifluoromethyl)-[1,2,4]triazolo[4,3-b]pyridazine]"
